Consider 14 molecules from patent publication US11813306B2, “Cyclic tetramer compounds as proprotein convertase subtilisin/kexin type 9 (PCSK9) inhibitors for the treatment of metabolic disorders” (NOVARTIS AG, priority 2018, dated 2023).

As usually defined, the IC50 is the point on the concentration scale where inhibition reaches its midpoint. The low end stands for inhibition by little substance, the high end for a need for much substance.

In the assay the target is human PCSK9 (Homo sapiens, UniProt Q8NBP7). As to the kind of experiment: PCSK9 ligand binding assay (TR-FRET): interference with binding of human PCSK9 to human LDLR. Particulars: for IC50: Human PCSK9 Alexa Fluor 647 / Human LDLR extracellular domain-Europium Kryptate; for Max % inhibition: efficacy (Amax), 100% = 1 uM unlabeled human PCSK9, 0% = DMSO. The method, boiled down:
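Read-out was TR-FRET ratio (665 nm over 615 nm, 330 nm excitation) between Alexa Fluor 647-human PCSK9 (16 nM added) and Europium Kryptate-human LDLR ectodomain (4 nM added). Compound and PCSK9 were mixed 30 min before LDLR, then incubated 2 h. Inhibition was normalised to DMSO and unlabelled-PCSK9 controls, giving IC50 and Amax.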
For orientation: TR-FRET usually uses a lanthanide donor and a delayed reading to cut background.

human PCSK9, sequence (Q8NBP7 153-692): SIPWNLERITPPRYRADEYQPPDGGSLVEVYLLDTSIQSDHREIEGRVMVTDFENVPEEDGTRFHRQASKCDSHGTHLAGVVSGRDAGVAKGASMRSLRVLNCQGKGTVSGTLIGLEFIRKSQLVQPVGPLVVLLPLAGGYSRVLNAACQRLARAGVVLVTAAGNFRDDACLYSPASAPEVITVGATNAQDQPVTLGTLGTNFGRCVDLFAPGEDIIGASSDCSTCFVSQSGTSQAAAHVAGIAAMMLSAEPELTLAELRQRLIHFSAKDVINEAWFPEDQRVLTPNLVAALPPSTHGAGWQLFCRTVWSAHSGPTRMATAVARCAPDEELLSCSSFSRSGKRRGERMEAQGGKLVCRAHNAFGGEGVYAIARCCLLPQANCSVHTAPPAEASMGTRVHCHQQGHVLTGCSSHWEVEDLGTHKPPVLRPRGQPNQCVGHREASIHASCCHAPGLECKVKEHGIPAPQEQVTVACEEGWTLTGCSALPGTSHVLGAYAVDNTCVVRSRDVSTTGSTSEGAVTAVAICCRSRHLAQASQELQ
human PCSK9, sequence (Q8NBP7 31-152 partner limits assumed): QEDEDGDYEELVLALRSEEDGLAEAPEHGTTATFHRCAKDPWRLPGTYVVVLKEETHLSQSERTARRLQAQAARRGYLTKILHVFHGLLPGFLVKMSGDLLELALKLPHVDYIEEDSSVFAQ

Consider `CCN(Cc1ncc(-c2ccc(Oc3cc(Cl)cc(F)c3CN3C(=O)C[C@@H](CC(F)(F)F)C(=O)N4CCC[C@@](Cc5ccc(Cl)cc5)(C4)NC(=O)[C@H](CO)NC(=O)[C@@H]3C)cc2)n1C)C1(C)CC1` [Compound 152, (3S, 7S, 10S, 13R)-6-(4-chloro-2-(4-(2-((ethyl(1-methylcyclopropyl)amino)methyl)-1-methyl-1H-imidazol-5-yl)phenoxy)-6-fluorobenzyl)-13-(4-chlorobenzyl)-10-(hydroxymethyl)-7-methyl-3-(2,2,2-trifluoroethyl)-1,6,9,12-tetraazabicyclo[11.3.1]heptadecane-2,5,8,11-tetraone], for which the IC50 was determined as 3.29 nM and the Max % inhibition is reported as 103.4%.

Take `C[C@H]1C(=O)N[C@@H](CO)C(=O)N[C@@]2(Cc3ccc(Cl)cc3)CCCN(C2)C(=O)[C@H](CC2CC2)CC(=O)N1Cc1c(F)cc(Cl)cc1Oc1ccc(-c2cnc(CNC3CCC3)n2C)cc1` [Compound 153, (3R, 7S, 10S, 13R)-6-(4-chloro-2-(4-(2-((cyclobutylamino)methyl)-1-methyl-1H-imidazol-5-yl)phenoxy)-6-fluorobenzyl)-13-(4-chlorobenzyl)-3-(cyclopropylmethyl)-10-(hydroxymethyl)-7-methyl-1,6,9,12-tetraazabicyclo[11.3.1]heptadecane-2,5,8,11-tetraone]: the IC50 was found to be 0.93 nM and the Max % inhibition amounted to 100.4%.

For the molecule `C[C@H]1C(=O)N[C@@H](CO)C(=O)N[C@@]2(Cc3ccc(Cl)cc3)CCCN(C2)C(=O)[C@H](CC2CC2)CC(=O)N1Cc1c(F)cc(Cl)cc1Oc1ccc(-c2cnc(CNC(C)(C)C)n2C)cc1` [Compound 154, (3R, 7S, 10S, 13R)-6-(2-(4-(2-((tert-butylamino)methyl)-1-methyl-1H-imidazol-5-yl)phenoxy)-4-chloro-6-fluorobenzyl)-13-(4-chlorobenzyl)-3-(cyclopropylmethyl)-10-(hydroxymethyl)-7-methyl-1,6,9,12-tetraazabicyclo[11.3.1]heptadecane-2,5,8,11-tetraone], the IC50 was determined as 0.71 nM and the Max % inhibition came out at 104.6%.

For `C[C@H]1C(=O)N[C@@H](CO)C(=O)N[C@@]2(Cc3ccc(Cl)cc3)CCCN(C2)C(=O)[C@H](CC2CCC2)CC(=O)N1Cc1c(F)cc(Cl)cc1Oc1ccc(-c2cnc(CN(C)C)n2C)cc1` [Compound 155, (3R, 7S, 10S, 13R)-6-(4-chloro-2-(4-(2-((dimethylamino)methyl)-1-methyl-1H-imidazol-5-yl)phenoxy)-6-fluorobenzyl)-13-(4-chlorobenzyl)-3-(cyclobutylmethyl)-10-(hydroxymethyl)-7-methyl-1,6,9,12-tetraazabicyclo[11.3.1]heptadecane-2,5,8,11-tetraone], the IC50 was determined as 0.95 nM and the Max % inhibition is on record as 101.4%.

For `COC[C@@H]1NC(=O)[C@H](C)N(Cc2c(F)cc(Cl)cc2Oc2ccc(-c3cnc(CN4CCC4)n3C)cc2)C(=O)C[C@@H](CC(F)(F)F)C(=O)N2CCC[C@@](Cc3ccc(Cl)cc3)(C2)N(C)C1=O` [Compound 157, (3S, 7S, 10S, 13R)-6-(2-(4-(2-(azetidin-1-ylmethyl)-1-methyl-1H-imidazol-5-yl)phenoxy)-4-chloro-6-fluorobenzyl)-13-(4-chlorobenzyl)-10-(methoxymethyl)-7,12-dimethyl-3-(2,2,2-trifluoroethyl)-1,6,9,12-tetraazabicyclo[11.3.1]heptadecane-2,5,8,11-tetraone], the IC50 came to 1.18 nM and the Max % inhibition is listed as 104.7%.

Consider `COC[C@@H]1NC(=O)[C@H](C)N(Cc2c(F)cc(Cl)cc2Oc2ccc(-c3cnc(CN(C)C)n3C)cc2)C(=O)C[C@@H](CC(C)(F)F)C(=O)N2CCC[C@@](Cc3ccc(Cl)cc3)(C2)N(C)C1=O` [Compound 158, (3S, 7S, 10S, 13R)-6-(4-chloro-2-(4-(2-((dimethylamino)methyl)-1-methyl-1H-imidazol-5-yl)phenoxy)-6-fluorobenzyl)-13-(4-chlorobenzyl)-3-(2,2-difluoropropyl)-10-(methoxymethyl)-7,12-dimethyl-1,6,9,12-tetraazabicyclo[11.3.1]heptadecane-2,5,8,11-tetraone], for which the IC50 came out at 0.96 nM and the Max % inhibition was 110.3%.

Turning to `COC[C@@H]1NC(=O)[C@H](C)N(Cc2c(F)cc(Cl)cc2Oc2ccc(-c3cnc(CN(C)C)n3C)cc2)C(=O)C[C@@H](Cc2ccccc2)C(=O)N2CCC[C@@](Cc3ccc(Cl)cc3)(C2)N(C)C1=O` [Compound 159, (3R, 7S, 10S, 13R)-3-benzyl-6-(4-chloro-2-(4-(2-((dimethylamino)methyl)-1-methyl-1H-imidazol-5-yl)phenoxy)-6-fluorobenzyl)-13-(4-chlorobenzyl)-10-(methoxymethyl)-7,12-dimethyl-1,6,9,12-tetraazabicyclo[11.3.1]heptadecane-2,5,8,11-tetraone], the IC50 was determined as 1.25 nM and the Max % inhibition turned out to be 114.0%.

In the case of `COC[C@@H]1NC(=O)[C@H](C)N(Cc2c(F)cc(Cl)cc2Oc2ccc(-c3cnc(CN(C)C4CCC4)n3C)cc2)C(=O)C[C@@H](CC(F)(F)F)C(=O)N2CCC[C@@](Cc3ccc(Cl)cc3)(C2)NC1=O` [Compound 160, (3S, 7S, 10S, 13R)-6-(4-chloro-2-(4-(2-((cyclobutyl(methyl)amino)methyl)-1-methyl-1H-imidazol-5-yl)phenoxy)-6-fluorobenzyl)-13-(4-chlorobenzyl)-10-(methoxymethyl)-7-methyl-3-(2,2,2-trifluoroethyl)-1,6,9,12-tetraazabicyclo[11.3.1]heptadecane-2,5,8,11-tetraone], the 50% inhibitory concentration (IC50) is 1.63 nM and the Max % inhibition came to 113.8%.

Turning to `C[C@H]1C(=O)N[C@@H](CO)C(=O)N[C@@]2(Cc3ccc(Cl)cc3)CCCN(C2)C(=O)[C@H](C2CC(F)(F)C2)CC(=O)N1Cc1c(F)cc(Cl)cc1Oc1ccc(-c2cnc(CN(C)C)n2C)cc1` [Compound 161, (3S, 7S, 10S, 13R)-6-(4-chloro-2-(4-(2-((dimethylamino)methyl)-1-methyl-1H-imidazol-5-yl)phenoxy)-6-fluorobenzyl)-13-(4-chlorobenzyl)-3-(3,3-difluorocyclobutyl)-10-(hydroxymethyl)-7-methyl-1,6,9,12-tetraazabicyclo[11.3.1]heptadecane-2,5,8,11-tetraone], the IC50 amounted to 0.33 nM and the Max % inhibition stood at 115.5%.

`C[C@H]1C(=O)N[C@@H](CO)C(=O)N[C@@]2(Cc3ccc(Cl)cc3)CCCN(C2)C(=O)[C@H](CC2CC2)CC(=O)N1Cc1ccc(Cl)cc1Oc1ccc(-c2cnc(CN(C)C(C)(C)C)n2C)cc1` [Compound 162, (3R, 7S, 10S, 13R)-6-(2-(4-(2-((tert-butyl(methyl)amino)methyl)-1-methyl-1H-imidazol-5-yl)phenoxy)-4-chlorobenzyl)-13-(4-chlorobenzyl)-3-(cyclopropylmethyl)-10-(hydroxymethyl)-7-methyl-1,6,9,12-tetraazabicyclo[11.3.1]heptadecane-2,5,8,11-tetraone]: the IC50 amounted to 1.3 nM and the Max % inhibition is recorded as 114.4%.

As to `C[C@H]1C(=O)N[C@@H](CO)C(=O)N[C@@]2(Cc3ccc(Cl)cc3)CCCN(C2)C(=O)[C@H](CC2CC2)CC(=O)N1Cc1c(F)cc(Cl)cc1Oc1ccc(-c2cnc(CN(C)C(C)(C)C)n2C)cc1` [Compound 163, (3R, 7S, 10S, 13R)-6-(2-(4-(2-((tert-butyl(methyl)amino)methyl)-1-methyl-1H-imidazol-5-yl)phenoxy)-4-chloro-6-fluorobenzyl)-13-(4-chlorobenzyl)-3-(cyclopropylmethyl)-10-(hydroxymethyl)-7-methyl-1,6,9,12-tetraazabicyclo[11.3.1]heptadecane-2,5,8,11-tetraone], the IC50 was 1.21 nM and the Max % inhibition was 111.6%.

Take `C[C@H]1C(=O)N[C@@H](CO)C(=O)N(C)[C@@]2(Cc3ccc(Cl)cc3)CCCN(C2)C(=O)[C@H](C2CC(F)(F)C2)CC(=O)N1Cc1c(F)cc(Cl)cc1Oc1ccc(-c2cnc(CN(C)C)n2C)cc1` [Compound 164, (3S, 7S, 10S, 13R)-6-(4-chloro-2-(4-(2-((dimethylamino)methyl)-1-methyl-1H-imidazol-5-yl)phenoxy)-6-fluorobenzyl)-13-(4-chlorobenzyl)-3-(3,3-difluorocyclobutyl)-10-(hydroxymethyl)-7,12-dimethyl-1,6,9,12-tetraazabicyclo[11.3.1]heptadecane-2,5,8,11-tetraone]: the 50% inhibitory concentration (IC50) worked out at 0.9 nM and the Max % inhibition was 109.6%.

For the molecule `COC[C@@H]1NC(=O)[C@H](C)N(Cc2c(F)cc(Cl)cc2Oc2ccc(-c3cnc(CNC(C)(C)C)n3C)cc2)C(=O)C[C@@H](C2CC(F)(F)C2)C(=O)N2CCC[C@@](Cc3ccc(Cl)cc3)(C2)N(C)C1=O` [Compound 165, (3S,7S,10S,13R)-6-(2-(4-(2-((tert-butylamino)methyl)-1-methyl-1H-imidazol-5-yl)phenoxy)-4-chloro-6-fluorobenzyl)-13-(4-chlorobenzyl)-3-(3,3-difluorocyclobutyl)-10-(methoxymethyl)-7,12-dimethyl-1,6,9,12-tetraazabicyclo[11.3.1]heptadecane-2,5,8,11-tetraone], the IC50 came out at 0.93 nM and the Max % inhibition amounted to 113.3%.

For `COC[C@@H]1NC(=O)[C@H](C)N(Cc2c(F)cc(Cl)cc2Oc2ccc(-c3cnc(CN)n3C)cc2)C(=O)C[C@@H](C2CC(F)(F)C2)C(=O)N2CCC[C@@](Cc3ccc(Cl)cc3)(C2)N(C)C1=O` [Compound 166, (3S, 7S, 10S, 13R)-6-(2-(4-(2-(aminomethyl)-1-methyl-1H-imidazol-5-yl)phenoxy)-4-chloro-6-fluorobenzyl)-13-(4-chlorobenzyl)-3-(3,3-difluorocyclobutyl)-10-(methoxymethyl)-7,12-dimethyl-1,6,9,12-tetraazabicyclo[11.3.1]heptadecane-2,5,8,11-tetraone], the IC50 came out at 0.74 nM and the Max % inhibition is on record as 98.1%.
